Assay results: ChEMBL document CHEMBL1151734, “Cytochrome P450 2C9 type II binding studies on quinoline-4-carboxamide analogues” (J Med Chem, 2008)

Target: T1, Cytochrome P450 2C9 (Homo sapiens, UniProt P11712)
Assay: Inhibition of purified CYP2C9

T1 sequence (P11712 whole entry): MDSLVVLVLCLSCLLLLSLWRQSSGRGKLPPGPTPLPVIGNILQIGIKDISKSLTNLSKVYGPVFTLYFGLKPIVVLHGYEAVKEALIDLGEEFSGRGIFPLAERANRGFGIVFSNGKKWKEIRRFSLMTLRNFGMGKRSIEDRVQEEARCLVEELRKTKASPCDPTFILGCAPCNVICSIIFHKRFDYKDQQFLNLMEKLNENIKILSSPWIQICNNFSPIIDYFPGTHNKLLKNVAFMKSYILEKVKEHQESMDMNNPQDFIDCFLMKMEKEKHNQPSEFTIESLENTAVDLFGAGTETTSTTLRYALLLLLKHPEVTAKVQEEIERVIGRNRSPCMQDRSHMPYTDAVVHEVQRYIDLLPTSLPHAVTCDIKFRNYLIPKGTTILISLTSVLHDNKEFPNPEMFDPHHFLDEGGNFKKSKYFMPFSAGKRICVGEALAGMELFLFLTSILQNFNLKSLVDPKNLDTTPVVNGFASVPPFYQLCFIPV

SMILES | Ki
O=C(NCc1cccc2ccccc12)c1cc(-c2ccncc2)nc2ccccc12 | 113 nM

Target: T1, Cytochrome P450 2C9
Assay: Binding affinity to CYP2C9 assessed as spectral dissociation constant

SMILES | Kd
O=C(Nc1ccccc1)c1cc(-c2ccncc2)nc2ccccc12 | 325 nM
O=C(NCc1cccc2ccccc12)c1cc(-c2ccncc2)nc2ccccc12 | 1280 nM

Target: T1, Cytochrome P450 2C9
Assay: Inhibition of reconstituted CYP2C9
Type: ADME

Ki | SMILES
76200 nM | O=C(c1cc(-c2ccccn2)nc2ccccc12)N1CCC(N2CCCC2)CC1
10700 nM | O=C(Nc1ccc2ccccc2c1)c1cc(-c2ccccn2)nc2ccccc12
24100 nM | O=C(c1cc(-c2cccnc2)nc2ccccc12)N1CCC(N2CCCC2)CC1
> 20600 nM | Cc1cc(C)c2nc(-c3ccccn3)cc(C(=O)Nc3ccc4ccccc4c3)c2c1
> 43500 nM | O=C(NCc1cccc2ccccc12)c1cc(-c2ccccn2)nc2ccccc12
8550 nM | Cc1cc(C)c2nc(-c3cccnc3)cc(C(=O)Nc3ccc4ccccc4c3)c2c1
33 nM | O=C(Nc1ccc2ccccc2c1)c1cc(-c2ccncc2)nc2ccccc12
23600 nM | O=C(c1cc(-c2ccccn2)nc2ccccc12)N1CCCCC1
4060 nM | O=C(Nc1ccccc1)c1cc(-c2cccnc2)nc2ccccc12
3470 nM | O=C(Nc1ccccc1)c1cc(-c2ccccn2)nc2ccccc12
100 nM | O=C(Nc1ccccc1)c1cc(-c2ccncc2)nc2ccccc12
1150 nM | O=C(Nc1ccc2ccccc2c1)c1cc(-c2cccnc2)nc2ccccc12
1250 nM | O=C(Nc1cccc2ccccc12)c1cc(-c2cccnc2)nc2ccccc12
9940 nM | O=C(c1cc(-c2ccncc2)nc2ccccc12)N1CCCCC1
3670 nM | O=C(c1cc(-c2ccncc2)nc2ccccc12)N1CCC(N2CCCC2)CC1
9740 nM | O=C(c1cc(-c2cccnc2)nc2ccccc12)N1CCCCC1

SMILES | Ki
Cc1cc(C)c2nc(-c3ccncc3)cc(C(=O)Nc3ccc4ccccc4c3)c2c1 | 11 nM
O=C(Nc1ccc2ccccc2c1)c1cc(-c2cccnc2)nc2ccc(Br)cc12 | > 37900 nM
O=C(Nc1cccc2ccccc12)c1cc(-c2ccccn2)nc2ccccc12 | 1320 nM
O=C(Nc1ccc2ccccc2c1)c1cc(-c2ccncc2)nc2ccc(Br)cc12 | 9 nM
O=C(Nc1ccc2ccccc2c1)c1cc(-c2cccnc2)nc2ccc(Cl)cc12 | 1890 nM
O=C(NCc1cccc2ccccc12)c1cc(-c2cccnc2)nc2ccccc12 | 152 nM
O=C(Nc1ccc2ccccc2c1)c1cc(-c2ccncc2)nc2ccc(Cl)cc12 | 12 nM
O=C(NCc1cccc2ccccc12)c1cc(-c2ccncc2)nc2ccccc12 | 125 nM
